These results are taken from article PMC3569853 (European journal of medicinal chemistry, 2012).

For test [1], the target named is T1, μ-opioid receptor (hMOR-CHO cells) (Homo sapiens, UniProt P35372). As to the kind of experiment: biochemical. The class given is binding.
Test [2] deals with δ-opioid receptor (hDOR-CHO cells) (Homo sapiens, UniProt P41143). In words: Opioid receptor binding assay, δ. Particulars: for δ~ μ: selectivity ratio Ki δ / Ki μ.
Test [3] addresses κ-opioid receptor (hKOR-CHO cells) (Homo sapiens, UniProt P41145). In words: Opioid receptor binding assay, κ. The note with it: for Ki: [3H]-U69,593, CHO hKOR cells, full binding assay, ±SD; for κ/μ: selectivity ratio Ki κ / Ki μ.
Test [4] addresses T1, μ-opioid receptor (hMOR-CHO cells). In words: biochemical.
Test [5] has the same target. As to the kind of experiment: Initial binding screen, estimated Ki. The note with it: read-out: estimated Ki (μ).
Setting [6] is: read-out: Ki δ, [3H]-DADLE, CHO hDOR cells, full binding assay, ±SD.

Where two headings read alike, the source gives them in different places.

Chain of κ-opioid receptor (hKOR-CHO cells) (P41145 whole entry): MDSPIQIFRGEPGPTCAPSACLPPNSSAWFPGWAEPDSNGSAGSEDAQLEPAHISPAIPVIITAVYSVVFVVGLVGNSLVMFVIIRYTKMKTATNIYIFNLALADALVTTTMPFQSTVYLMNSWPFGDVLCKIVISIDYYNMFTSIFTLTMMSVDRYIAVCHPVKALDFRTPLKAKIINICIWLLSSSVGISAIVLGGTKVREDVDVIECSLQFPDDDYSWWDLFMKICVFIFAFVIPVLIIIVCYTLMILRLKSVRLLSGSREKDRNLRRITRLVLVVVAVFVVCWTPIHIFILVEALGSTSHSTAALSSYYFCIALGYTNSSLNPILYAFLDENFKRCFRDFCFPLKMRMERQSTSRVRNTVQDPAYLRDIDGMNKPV
Chain of δ-opioid receptor (hDOR-CHO cells) (P41143 whole entry): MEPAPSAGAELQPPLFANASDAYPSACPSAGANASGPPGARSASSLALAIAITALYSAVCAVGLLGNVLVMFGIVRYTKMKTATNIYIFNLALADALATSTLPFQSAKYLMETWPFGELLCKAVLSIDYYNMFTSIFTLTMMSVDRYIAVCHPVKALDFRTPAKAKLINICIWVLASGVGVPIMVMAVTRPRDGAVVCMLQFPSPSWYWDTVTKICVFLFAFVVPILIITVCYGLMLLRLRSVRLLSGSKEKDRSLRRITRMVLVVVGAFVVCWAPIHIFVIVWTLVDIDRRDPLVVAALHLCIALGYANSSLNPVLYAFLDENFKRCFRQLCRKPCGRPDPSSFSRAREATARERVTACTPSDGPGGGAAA
T1 sequence (P35372 whole entry): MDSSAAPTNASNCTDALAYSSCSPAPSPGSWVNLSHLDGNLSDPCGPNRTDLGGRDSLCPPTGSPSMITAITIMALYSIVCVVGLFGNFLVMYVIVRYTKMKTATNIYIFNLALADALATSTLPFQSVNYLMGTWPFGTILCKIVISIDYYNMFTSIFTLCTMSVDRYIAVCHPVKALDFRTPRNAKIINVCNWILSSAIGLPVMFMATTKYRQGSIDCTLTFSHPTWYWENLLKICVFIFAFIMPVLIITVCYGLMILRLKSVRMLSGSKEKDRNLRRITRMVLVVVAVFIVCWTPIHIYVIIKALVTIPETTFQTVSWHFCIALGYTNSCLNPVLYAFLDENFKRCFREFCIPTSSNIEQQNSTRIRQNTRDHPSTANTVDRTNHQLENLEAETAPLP

Consider “13-phenethyl-2,3,4,9,10,10a-hexahydro-1H-1,4a-(epiminoethano)-phenanthrene-6,9α-diol [Compound 22]”, for which the Ki is 72 ± 10 nM in test [1] (read-out: Ki μ), over 10000 nM in test [2] (setting [6]) and 1810 ± 95 nM in test [3] (read-out: Ki κ). In addition, in test [2], the “δ~ μ” value was 139. For the same molecule, the κ/μ in test [3] amounted to 25.

As to `Oc1cccc2c1CCC1C3CCCC21CCN3CCc1ccccc1` (stereo not drawn) [Compound 17, 13-phenethyl-2,3,4,9,10,10a-hexahydro-1H-1,4a-(epiminoethano)phenanthrene-8-ol], the Ki was 21 ± 5 nM in test [1] (Ki μ), 2830 ± 223 nM in test [2] and 873 ± 101 nM in test [3] (Ki κ). In addition, the “δ~ μ” value in test [2] turned out to be 135. In test [4], this molecule returned a Kb of 7 ± 1.8 nM. Moreover, the κ/μ in test [3] stood at 42.

Take “13-phenethyl-2,3,4,9,10,10a-hexahydro-1H-1,4a-(epiminoethano)phenanthrene-8,9β-diol [Compound 13]”: the Ki in test [2] (setting [6]) was over 10000 nM; in test [3] (read-out: Ki κ), 923 ± 32 nM. The “δ~ μ” value in test [2] is given as 56. The κ/μ in test [3] was 5.

In the case of `O=C1CC2C3CCCC2(CCN3CCc2ccccc2)c2cccc(O)c21` (stereo not drawn) [Compound 9, 8-hydroxy-13-phenethyl-3,4,10,10a-tetrahydro-1H-1,4a-(epiminoethano)phenanthren-9(2H)-one], in test [5], the potency estimated from few doses was 297 nM.

In the case of “13-phenethyl-2,3,4,9,10,10a-hexahydro-1H-1,4a-(epiminoethano)-phenanthrene-8,9α-diol [Compound 12]”, the Ki was 14 ± 2 nM in test [1] (read-out: Ki μ), over 10000 nM in test [2] (setting [6]) and 525 ± 39 nM in test [3] (read-out: Ki κ). For the same molecule, the “δ~ μ” value in test [2] is listed as 714. In test [4], the “Ke μ” value came out at 6 ± 1 nM. Further, in test [3], the κ/μ stood at 38.

For the molecule `CN1CCC23CCCC1C2C=Cc1ccc(O)cc13` (stereo not drawn) [Compound 20, 13-methyl-2,3,4,10a-tetrahydro-1H-1,4a-(epiminoethano)phenanthren-6-ol], the Ki in test [1] (Ki μ) is 57 ± 6 nM; in test [2], over 10000 nM; in test [3] (Ki κ), 4040 ± 363 nM. In test [5], the potency estimated from few doses was 67 nM. Besides, the “δ~ μ” value in test [2] amounted to 175. For the same molecule, in test [3], the κ/μ amounted to 71.

With `CN1CCC23CCCC1C2C=Cc1c(O)cccc13` (stereo not drawn) [Compound 14, 13-methyl-2,3,4,10a-tetrahydro-1H-1,4a-(epiminoethano)phenanthren-8-ol], the values for the Ki in test [1] (Ki μ), in test [2] and in test [3] (Ki κ) were 67 ± 7 nM, over 10000 nM and 3890 ± 441 nM, respectively. Besides, the “δ~ μ” value in test [2] is given as 149. Besides, the κ/μ in test [3] is 58.

Take `Oc1ccc2c(c1)C13CCCC(C1CC2)N(CCc1ccccc1)CC3` (stereo not drawn) [Compound 24, 13-phenethyl-2,3,4,9,10,10a-hexahydro-1H-1,4a-(epiminoethano)phenanthren-6-ol]: the Ki in test [1] (Ki μ) amounted to 2.3 ± 0.2 nM; in test [2], 186 ± 25 nM; in test [3] (Ki κ), 61 ± 6 nM. The “δ~ μ” value in test [2] is given as 81. Moreover, the Kb in test [4] worked out at 0.71 ± 0.13 nM. In test [3], the κ/μ stood at 27.

In the case of `O=C1CC2C3CCCC2(CCN3CCc2ccccc2)c2cc(O)ccc21` (stereo not drawn) [Compound 18, 6-hydroxy-13-phenethyl-3,4,10,10a-tetrahydro-1H-1,4a-(epiminoethano)phenanthren-9(2H)-one], in test [5], the potency estimated from few doses is 80 nM.

Take `Oc1ccc2c(c1)C13CCCC(C1C=C2)N(CCc1ccccc1)CC3` (stereo not drawn) [Compound 23, 13-phenethyl-2,3,4,10a-tetrahydro-1H-1,4a-(epiminoethano)phenanthren-6-ol]: the Ki in test [1] (Ki μ) was 2.6 ± 0.35 nM; in test [2] it was 127 ± 31 nM; in test [3] (Ki κ) it was 51 ± 4 nM. Also, in test [2], the “δ~ μ” value amounted to 49. Moreover, the Kb in test [4] came to 0.34 ± 0.07 nM. The κ/μ in test [3] was found to be 20.

As for `Oc1cccc2c1C=CC1C3CCCC21CCN3CCc1ccccc1` (stereo not drawn) [Compound 16, 13-phenethyl-2,3,4,10a-tetrahydro-1H-1,4a-(epiminoethano)phenanthren-8-ol], the Ki in test [1] (Ki μ) stood at 19 ± 4 nM; in test [2], 1840 ± 212 nM; in test [3] (Ki κ), 369 ± 26 nM. Besides, the “δ~ μ” value in test [2] came out at 97. The molecule further came in with a Kb in test [4] of 1.7 ± 0.26 nM. Besides, the κ/μ in test [3] is recorded as 19.

Regarding “13-methyl-2,3,4,9,10,10a-hexahydro-1H-1,4a-(epiminoethano)-phenanthrene-8,9α-diol [Compound 10]”, the figures for the Ki in test [1] (read-out: Ki μ), in test [2] (setting [6]) and in test [3] (read-out: Ki κ) were 30 ± 6 nM, 3220 ± 332 nM and 2020 ± 169 nM, respectively. The “δ~ μ” value in test [2] is given as 107. For the same molecule, the “Ke μ” value in test [4] came to 706 ± 135 nM.

For orientation: Ki means a dissociation constant, usually derived from enzyme kinetics or from competition with a known ligand.
